The target of the assay is T1, F508del (Homo sapiens, UniProt P13569, DEL508-508).
T1 construct: expressed in transfected cells
Kind of assay: Protocol 1: membrane potential optical assay (FLIPR III, voltage sensing dye), identification of potentiator compounds. The format is cell-based. The note with it: Table 3, compounds of Table 1. An outline of the steps: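 Gating potentiation is read as a membrane-potential fluorescence change (FLIPR III, voltage-sensing dye) after one forskolin addition under a Cl− gradient, with gluconate replacing chloride, pH 7.4. Cells are F508del-expressing NIH3T3 mouse fibroblasts held 24 h at 27 °C and exposed to compound before dye loading.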

The structures appear in SMILES notation.

T1 sequence (P13569 with tags, fused parts or gaps DEL508-508): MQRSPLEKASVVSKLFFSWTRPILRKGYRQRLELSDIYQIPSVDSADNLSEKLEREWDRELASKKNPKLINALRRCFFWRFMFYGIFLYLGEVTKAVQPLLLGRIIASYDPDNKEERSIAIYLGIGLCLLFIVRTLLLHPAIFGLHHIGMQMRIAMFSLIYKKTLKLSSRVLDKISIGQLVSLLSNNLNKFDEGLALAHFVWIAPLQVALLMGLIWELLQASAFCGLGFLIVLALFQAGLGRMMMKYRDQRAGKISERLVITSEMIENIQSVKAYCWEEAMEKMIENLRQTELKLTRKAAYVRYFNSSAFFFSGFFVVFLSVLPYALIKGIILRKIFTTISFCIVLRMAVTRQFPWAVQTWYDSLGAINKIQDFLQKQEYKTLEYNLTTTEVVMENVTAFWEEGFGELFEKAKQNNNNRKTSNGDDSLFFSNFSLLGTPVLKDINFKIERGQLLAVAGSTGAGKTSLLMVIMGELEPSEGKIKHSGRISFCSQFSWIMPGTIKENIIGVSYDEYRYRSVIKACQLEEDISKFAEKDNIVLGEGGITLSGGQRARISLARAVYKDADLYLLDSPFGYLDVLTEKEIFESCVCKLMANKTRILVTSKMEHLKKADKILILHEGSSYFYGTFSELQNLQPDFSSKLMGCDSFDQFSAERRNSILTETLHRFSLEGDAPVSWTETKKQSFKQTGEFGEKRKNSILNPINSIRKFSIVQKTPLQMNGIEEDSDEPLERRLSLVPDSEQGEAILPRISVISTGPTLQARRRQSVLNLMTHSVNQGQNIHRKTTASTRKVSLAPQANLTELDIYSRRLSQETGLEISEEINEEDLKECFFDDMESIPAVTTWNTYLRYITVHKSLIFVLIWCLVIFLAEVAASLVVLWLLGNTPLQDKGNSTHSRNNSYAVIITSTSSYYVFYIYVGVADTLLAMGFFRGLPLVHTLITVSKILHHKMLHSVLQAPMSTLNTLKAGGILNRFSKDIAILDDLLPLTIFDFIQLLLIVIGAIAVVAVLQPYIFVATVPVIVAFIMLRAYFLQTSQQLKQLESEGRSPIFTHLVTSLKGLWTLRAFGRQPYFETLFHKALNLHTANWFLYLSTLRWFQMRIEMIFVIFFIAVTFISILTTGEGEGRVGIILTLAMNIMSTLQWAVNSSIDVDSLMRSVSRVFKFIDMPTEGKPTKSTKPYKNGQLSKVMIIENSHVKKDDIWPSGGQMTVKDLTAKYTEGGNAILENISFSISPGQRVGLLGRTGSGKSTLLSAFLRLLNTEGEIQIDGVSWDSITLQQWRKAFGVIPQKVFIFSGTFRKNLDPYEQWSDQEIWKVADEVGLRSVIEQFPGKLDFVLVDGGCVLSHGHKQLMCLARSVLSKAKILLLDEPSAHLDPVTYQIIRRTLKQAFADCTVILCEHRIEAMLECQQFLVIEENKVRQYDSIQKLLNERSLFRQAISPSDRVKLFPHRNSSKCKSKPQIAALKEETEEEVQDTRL

Turning to `CC(C)Oc1ccc(-c2ccc(C(=O)NS(=O)(=O)c3cccc(N)n3)c(N3C4CCC3CC4)n2)cn1` [Compound 903, N-[(6-amino-2-pyridyl)sulfonyl]-2-(7-azabicyclo[2.2.1]heptan-7-yl)-6-(6-isopropoxy-3-pyridyl)pyridine-3-carboxamide], the EC30 result is “++ (“++” means between 3 uM and 10 uM)”. As for `CC(C)COc1cc(F)cc(-c2cnc(C(=O)NS(=O)(=O)c3cccc(N)n3)c(N3C[C@@H](C)CC3(C)C)n2)c1` [Compound 1526, NV [(6-amino-2-pyridyl)sulfonyl]-5-(3-fluoro-5-isobutoxy-phenyl)-3-[(4S)-2,2,4-trimethylpyrrolidin-1-yl]pyrazine-2-carboxamide], the EC30 result is “+++ (“+++” means <3 uM)”.

As to `CC(C)Oc1ccc(-c2ccc(C(=O)NS(=O)(=O)c3cccnc3N)c(N3[C@H](C)CC[C@@H]3C)n2)cn1` [Compound 1316, N-[(2-amino-3-pyridyl)sulfonyl]-2-[(2S,5R)-2,5-dimethylpyrrolidin-1-yl]-6-(6-isopropoxy-3-pyridyl)pyridine-3-carboxamide], the EC30 entry was “+++ (“+++” means <3 uM)”.

Consider `Cc1cc(C)c(Oc2ncc(Cc3ccccc3)cc2C(=O)NS(=O)(=O)c2cccc(N)n2)c(C)c1` [Compound 1233, N-[(6-amino-2-pyridyl)sulfonyl]-5-benzyl-2-(2,4,6-trimethylphenoxy)pyridine-3-carboxamide], for which the EC30 entry was “++ (“++” means between 3 uM and 10 uM)”. Take `Cc1cc(C)c(Oc2nc(N(C)CC(C)C)c(C)cc2C(=O)NS(=O)(=O)c2cccc(N)n2)c(C)c1` [Compound 1416, N-[(6-amino-2-pyridyl)sulfonyl]-6-[isobutyl(methyl)amino]-5-methyl-2-(2,4,6-trimethylphenoxy)pyridine-3-carboxamide]: the EC30 result is “+++ (“+++” means <3 uM)”. For the molecule `CC(C)Oc1ccc(-c2ccc(C(=O)NS(=O)(=O)c3cccc(N)n3)c(N3CCCC3C)n2)cn1` (stereo not drawn) [Compound 1271, N-[(6-amino-2-pyridyl)sulfonyl]-6-(6-isopropoxy-3-pyridyl)-2-(2-methylpyrrolidin-1-yl)pyridine-3-carboxamide], the EC30 result was “+++ (“+++” means <3 uM)”.

Take `CC(C)COc1cc(-c2ccc(C(=O)NS(=O)(=O)c3cccc(N)n3)c(N3CC(C)CC3(C)C)n2)ccn1` (stereo not drawn) [Compound 1192, N-[(6-amino-2-pyridyl)sulfonyl]-6-(2-isobutoxy-4-pyridyl)-2-(2,2,4-trimethylpyrrolidin-1-yl)pyridine-3-carboxamide]: the EC30 result is “+++ (“+++” means <3 uM)”. For the molecule `Cc1ccc(-c2ccc(C(=O)NS(=O)(=O)c3cccc(N)n3)c(N3[C@H](C)CC[C@@H]3C)n2)cc1` [Compound 1078, N-[(6-amino-2-pyridyl)sulfonyl]-2-[(2R,5S)-2,5-dimethylpyrrolidin-1-yl]-6-(p-tolyl)pyridine-3-carboxamide], the EC30 entry is “++ (“++” means between 3 uM and 10 uM)”. Turning to `C[C@@H]1CN(c2nc(C(C)(C)C)c(C3=CC4CCC3C4)cc2C(=O)NS(=O)(=O)c2cccc(N)n2)C(C)(C)C1` (stereo partly drawn) [Compound 1577, N-[(6-amino-2-pyridyl)sulfonyl]-5-(3-bicyclo[2.2.1]hept-2-enyl)-6-tert-butyl-2-[(4S)-2,2,4-trimethylpyrrolidin-1-yl]pyridine-3-carboxamide], the EC30 entry was “+++ (“+++” means <3 uM)”. Regarding `Cc1cc(C)c(Oc2nc(-c3cccc4[nH]ccc34)ccc2C(=O)NS(=O)(=O)c2cccc(N)n2)c(C)c1` [Compound 977, N-[(6-amino-2-pyridyl)sulfonyl]-6-(1H-indol-4-yl)-2-(2,4,6-trimethylphenoxy)pyridine-3-carboxamide], the EC30 result was “++ (“++” means between 3 uM and 10 uM)”. On to `CC(C)COc1cc(F)cc(-c2ccc(C(=O)NS(=O)(=O)c3ccccn3)c(N3CCC(C)(C)CC3)n2)c1` [Compound 1069, 2-(4,4-dimethyl-1-piperidyl)-6-(3-fluoro-5-isobutoxy-phenyl)-N-(2-pyridylsulfonyl)pyridine-3-carboxamide], for which the EC30 entry is “+++ (“+++” means <3 uM)”. For `CC(C)COc1cc(F)cc(-c2ccc(C(=O)NS(=O)(=O)c3cccc(N)n3)c(N3CC[C@@H](C)C3)n2)c1` [Compound 1051, N-[(6-amino-2-pyridyl)sulfonyl]-6-(3-fluoro-5-isobutoxy-phenyl)-2-[(3R)-3-methylpyrrolidin-1-yl]pyridine-3-carboxamide] the value was “+++ (“+++” means <3 uM)”; for `CC1CN(c2ncccc2C(=O)NS(=O)(=O)c2cccc(OCC3CCCCO3)n2)C(C)(C)C1` (stereo not drawn) [Compound 1939, N—[[6-(tetrahydropyran-2-ylmethoxy)-2-pyridyl]sulfonyl]-2-(2,2,4-trimethylpyrrolidin-1-yl)pyridine-3-carboxamide], “++ (“++” means between 3 uM and 10 uM)”; for `Cc1cn(-c2ccc(C(=O)NS(=O)(=O)c3cccc(N)n3)c(N3C[C@@H](C)CC3(C)C)n2)nc1OCC(C)C` [Compound 1532, N-[(6-amino-2-pyridyl)sulfonyl]-6-(3-isobutoxy-4-methyl-pyrazol-1-yl)-2-[(4S)-2,2,4-trimethylpyrrolidin-1-yl]pyridine-3-carboxamide], “+++ (“+++” means <3 uM)”. `CCc1ccc(C(=O)NS(=O)(=O)c2cccc(N)n2)c(N2C[C@@H](C)CC2(C)C)n1` [Compound 1507, N-[(6-amino-2-pyridyl)sulfonyl]-6-ethyl-2-[(4S)-2,2,4-trimethylpyrrolidin-1-yl]pyridine-3-carboxamide]: the EC30 result was “++ (“++” means between 3 uM and 10 uM)”. On to `CC(C)c1ccc(-c2ccc(C(=O)NS(=O)(=O)c3cccc(N)n3)c(N3[C@H](C)CC[C@@H]3C)n2)cc1` [Compound 1343, N-[(6-amino-2-pyridyl)sulfonyl]-2-[(2S,5R)-2,5-dimethylpyrrolidin-1-yl]-6-(4-isopropylphenyl)pyridine-3-carboxamide], for which the EC30 entry is recorded as “+++ (“+++” means <3 uM)”. As to `CC(=O)C1CC=C(c2ccc(C(=O)NS(=O)(=O)c3cccc(N)n3)c(Oc3c(C)cc(C)cc3C)n2)CC1` (stereo not drawn) [Compound 1615, 6-(4-acetylcyclohexen-1-yl)-N-[(6-amino-2-pyridyl)sulfonyl]-2-(2,4,6-trimethylphenoxy)pyridine-3-carboxamide], the EC30 entry was “+++ (“+++” means <3 uM)”. In the case of `COc1ncccc1S(=O)(=O)NC(=O)c1ccc(-c2cc(F)cc(OC(C)C)c2)nc1-c1ccc(C)cc1` [Compound 798, 6-(3-fluoro-5-isopropoxy-phenyl)-N-[(2-methoxy-3-pyridyl)sulfonyl]-2-(p-tolyl)pyridine-3-carboxamide], the EC30 result is “+++ (“+++” means <3 uM)”. On to `COc1cccc(OC)c1-c1ccc(C(=O)NS(=O)(=O)c2cccc(N)n2)c(Oc2c(C)cc(C)cc2C)n1` [Compound 1326, N-[(6-amino-2-pyridyl)sulfonyl]-6-(2,6-dimethoxyphenyl)-2-(2,4,6-trimethylphenoxy)pyridine-3-carboxamide], for which the EC30 entry is “++ (“++” means between 3 uM and 10 uM)”. For `COc1nccc(-c2ccc(C(=O)NS(=O)(=O)c3cccc(N)n3)c(Oc3c(C)cc(C)cc3C)n2)c1Cl` [Compound 1284, N-[(6-amino-2-pyridyl)sulfonyl]-6-(3-chloro-2-methoxy-4-pyridyl)-2-(2,4,6-trimethylphenoxy)pyridine-3-carboxamide] the value was “+++ (“+++” means <3 uM)”. With `CC(C)c1ccc(-c2ccc(C(=O)NS(=O)(=O)c3cccc(N)n3)c(N3C[C@H](C)CC3(C)C)n2)cc1` [Compound 890, N-[(6-amino-2-pyridyl)sulfonyl]-6-(4-isopropylphenyl)-2-[(4R)-2,2,4-trimethylpyrrolidin-1-yl]pyridine-3-carboxamide], the EC30 entry is “+++ (“+++” means <3 uM)”. In the case of `Cc1ccc(C)c(-c2ccc(C(=O)NS(=O)(=O)c3cccnc3N)c(N3C[C@@H](C)CC3(C)C)n2)c1` [Compound 1951, N-[(2-amino-3-pyridyl)sulfonyl]-6-(2,5-dimethylphenyl)-2-[(4S)-2,2,4-trimethylpyrrolidin-1-yl]pyridine-3-carboxamide], the EC30 result is reported as “+++ (“+++” means <3 uM)”. Turning to `CC(C)Oc1ccc(-c2ccc(C(=O)NS(=O)(=O)c3ccc(OCc4ccccc4)c(N)n3)c(N3[C@H](C)CC[C@@H]3C)n2)cn1` [Compound 1588, N-[(6-amino-5-benzyloxy-2-pyridyl)sulfonyl]-2-[(2S,5R)-2,5-dimethylpyrrolidin-1-yl]-6-(6-isopropoxy-3-pyridyl)pyridine-3-carboxamide], the EC30 entry is listed as “+++ (“+++” means <3 uM)”. Turning to `CC(C)COc1cc(F)cc(-c2ccc(C(=O)NS(=O)(=O)c3cccc4[nH]ccc34)c(N3CCC(C)(C)CC3)n2)c1` [Compound 1323, 2-(4,4-dimethyl-1-piperidyl)-6-(3-fluoro-5-isobutoxy-phenyl)-N-(1H-indol-4-ylsulfonyl)pyridine-3-carboxamide], the EC30 result is given as “+ (“+” means greater than 10 uM)”.

`Cc1cc(C)c(CN2c3ccccc3C[C@@H]2C(=O)NS(=O)(=O)c2ccccc2)c(C)c1` [Compound 918, (2R)—N-(benzenesulfonyl)-1-[(2,4,6-trimethylphenyl)methyl]indoline-2-carboxamide]: the EC30 result is “+++ (“+++” means <3 uM)”. For the molecule `CC(C)COc1cc(F)cc(-c2ccc(C(=O)NS(=O)(=O)c3ccccc3)c(N3C[C@H](C)CC3(C)C)n2)c1` [Compound 1396, N-(benzenesulfonyl)-6-(3-fluoro-5-isobutoxy-phenyl)-2-[(4R)-2,2,4-trimethylpyrrolidin-1-yl]pyridine-3-carboxamide], the EC30 entry was “+++ (“+++” means <3 uM)”. With `CCc1ccc(-c2ccc(C(=O)NS(=O)(=O)c3cccc(N)n3)c(Oc3c(C)cc(C)cc3C)n2)cc1` [Compound 900, N-[(6-amino-2-pyridyl)sulfonyl]-6-(4-ethylphenyl)-2-(2,4,6-trimethylphenoxy)pyridine-3-carboxamide], the EC30 entry is recorded as “+++ (“+++” means <3 uM)”.

Source of the values: patent US10758534B2 (Vertex Pharmaceuticals Incorporated, priority 2014, dated 2020).
